Tests used:
[1] = Displacement of [3H]DTG from sigma 2 receptor in rat liver membrane; assay type: cell membranes
[2] = target: Sigma non-opioid intracellular receptor 1 (Rattus norvegicus, UniProt Q9R0C9); experiment: Displacement of [3H](+)-pentazocine from sigma 1 receptor in rat liver membrane; assay type: cell membranes
Rattus norvegicus = species: Rattus norvegicus; experiment: Selectivity ratio of Ki for rat liver sigma 2 receptor to Ki for rat liver sigma 1 receptor

Sequence of Sigma non-opioid intracellular receptor 1 (Q9R0C9 whole entry): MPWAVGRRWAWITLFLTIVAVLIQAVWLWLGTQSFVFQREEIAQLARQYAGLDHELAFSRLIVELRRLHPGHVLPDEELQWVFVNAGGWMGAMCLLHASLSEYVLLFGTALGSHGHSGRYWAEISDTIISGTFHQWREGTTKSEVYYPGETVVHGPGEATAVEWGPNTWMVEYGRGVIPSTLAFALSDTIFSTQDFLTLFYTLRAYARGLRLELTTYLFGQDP

**Q.** What does the source list for `O=c1oc2ccccc2n1CC1CCN(Cc2ccc(F)cc2)CC1`?
**A.** Ki [1]: 170 nM; Ki [2]: 3.9 nM; Ratio Ki (Rattus norvegicus): 44

**Q.** With `O=c1oc2ccccc2n1CC1CCN(Cc2ccccc2F)CC1` as the compound, how does the Ki [1] read?
**A.** 213 nM

**Q.** What about the Ki [2] of the same compound?
**A.** 23 nM

**Q.** And the Ratio Ki (Rattus norvegicus)?
**A.** 9

**Q.** For `O=c1oc2ccccc2n1CC1CCN(Cc2ccc(Cl)cc2Cl)CC1`, which Ki [1] is on record?
**A.** 382 nM

**Q.** And the Ki [2]?
**A.** 258 nM

**Q.** And the Ratio Ki (Rattus norvegicus)?
**A.** 1.5

**Q.** Which Ki [1] does the source give for `CC(C)=CCN1CC[C@]2(C)c3cc(O)ccc3C[C@H]1[C@H]2C` [(+)-PENTAZOCINE] here?
**A.** 327 nM

**Q.** For `O=c1oc2ccccc2n1CC1CCN(Cc2ccc(Cl)cc2)CC1`, which Ki [1] is on record?
**A.** 427 nM

**Q.** With `O=c1oc2ccccc2n1CC1CCN(Cc2cccc3ccccc23)CC1` as the compound, how does the Ki [1] read?
**A.** 1290 nM

**Q.** Which results are given for `Cc1ccc(CN2CCC(Cn3c(=O)oc4ccccc43)CC2)cc1`?
**A.** Ki [1]: 116 nM; Ki [2]: 2.9 nM; Ratio Ki (Rattus norvegicus): 40

**Q.** With `Cc1ccc(CN2CCC(Cn3c(=O)oc4ccccc43)CC2)c(C)c1` as the compound, how does the Ki [1] read?
**A.** 187 nM

**Q.** What about the Ki [2] of the same compound?
**A.** 30 nM

**Q.** And the Ratio Ki (Rattus norvegicus)?
**A.** 6

**Q.** Which Ki [1] does the source give for `O=C(CCCN1CCC(O)(c2ccc(Cl)cc2)CC1)c1ccc(F)cc1` [HALOPERIDOL] here?
**A.** 235 nM

**Q.** Which Ki [1] does the source give for `Cc1ccc(CN(C)CCCCc2cn(-c3ccc(F)cc3)c3ccccc23)c(C)c1` here?
**A.** 5.9 nM

**Q.** What about the Ratio Ki (Rattus norvegicus) of the same compound?
**A.** 0.05

**Q.** For `O=c1oc2ccccc2n1CC1CCN(Cc2ccccc2Cl)CC1`, which Ki [1] is on record?
**A.** 299 nM

**Q.** Which Ki [1] does the source give for `Cc1cc(C)c(CN2CCC(Cn3c(=O)oc4ccccc43)CC2)c(C)c1` here?
**A.** 2880 nM

**Q.** And the Ki [2]?
**A.** 6230 nM

**Q.** What about the Ratio Ki (Rattus norvegicus) of the same compound?
**A.** 0.5

**Q.** With `O=c1oc2ccccc2n1CC1CCN(Cc2ccccc2)CC1` as the compound, how does the Ki [1] read?
**A.** 246 nM

**Q.** With `O=c1oc2ccccc2n1CC1CCN(Cc2ccc(-c3ccccc3)cc2)CC1` as the compound, how does the Ki [1] read?
**A.** > 10000 nM

**Q.** What about the Ki [2] of the same compound?
**A.** 394 nM

**Q.** What about the Ratio Ki (Rattus norvegicus) of the same compound?
**A.** > 25

**Q.** What does the source list for `CN(CCCc1cn(-c2ccc(F)cc2)c2ccccc12)Cc1ccccc1`?
**A.** Ki [1]: 5.9 nM; Ratio Ki (Rattus norvegicus): 22

**Q.** With `CCC(=O)c1ccc2c(c1)oc(=O)n2CCCN1CCCCC1` as the compound, how does the Ki [1] read?
**A.** 8.5 nM

**Q.** And the Ratio Ki (Rattus norvegicus)?
**A.** 58

**Q.** What does the source list for `Cc1ccccc1CN1CCC(Cn2c(=O)oc3ccccc32)CC1`?
**A.** Ki [1]: 338 nM; Ki [2]: 33 nM; Ratio Ki (Rattus norvegicus): 10

**Q.** With `Cc1ccccc1NC(=N)Nc1ccccc1C` [DITOLYLGUANIDINE] as the compound, how does the Ki [1] read?
**A.** 130 nM
